Data on 4 compounds can be found in patent publication US9822089B2, “R type of resveratrol dimer, preparation process therefor and purpose thereof in lowering blood sugar level” (priority 2013, dated 2017).

In experiment [1] the test system is sucrose-induced high blood sugar level of a mouse. Kind of experiment: orally-administered sucrose tolerance test for normal mice. It is filed as in vivo. The following applies: for area under the sucrose tolerance test curve: FIG. 1, negative control group 21.0 mmol h/L; for blood glucose-lowering rate: compared with the negative control group; for lowering of sucrose-induced high blood sugar level of a mouse (in words): sucrose load; for Blood sugar concentration: drug 0.33 mg/ml suspension, 0.3 ml per 10 g intragastric 30 min before, x ± s, n = 10. On the procedure:
A mean body weight of mice was 22 g to 25 g. The mice were randomly divided into 6 groups, and each group included 10 animals. Each group of animals was intragastrically administered with a drug after 12 hours of fasting.
For a normal control group, a 0.5% CMC-Na solution whose volume is equal to that of a positive control group was administered.
For a negative control group, a 0.5% CMC-Na solution whose volume is equal to that of a positive control group was administered.
For an acarbose group, a 0.33 mg/ml acarbose suspension that was prepared by using a 0.5% CMC-Na solution was administered at a dosage of 0.3 ml per 10 g of weight.
For a TVN racemate group, a 0.33 mg/ml TVN racemate suspension that was prepared by using a 0.5% CMC-Na solution was administered at a dosage of 0.3 ml per 10 g of weight.
For a (S,S)-TVN group, a 0.33 mg/ml (S,S)-TVN suspension that was prepared by using a 0.5% CMC-Na solution was administered tat a dosage of 0.3 ml per 10 g of weight.
For a (R,R)-TVN group, a 0.33 mg/ml (R,R)-TVN suspension that was prepared by using a 0.5% CMC-Na solution was administered at a dosage of 0.3 ml per 10 g of weight.
After 30 min, animals in the groups other than the normal group were intragastrically administered with a 6.7% sucrose solution at a dosage of 0.3 ml per 10 g of weight, and animals in the normal group were intragastrically administered with water whose volume is equal to that of the sucrose solution. Orbital blood sampling was separately performed at four time points, namely 0 h, 0.5 h, 1 h, and 2 h after intragastric administration of the sucrose solution to the animals. Then, 2 μL of blood serum was taken after centrifugation and added into a 96-pore plate. Thereafter, 200 μL of a reagent from a glucose assay kit was further added thereinto and a 505 nm micro-plate reader was used to measure a value of absorbance. A blood sugar concentration was obtained from a standard curve. Refer to the table below:
All data was represented by using a mean value±a standard deviation (x±s). SPSS11.5 software was used for analysis, and data comparison was performed by means of a one-way analysis of variance. P<0.05 represents that there was a significant difference; and P<0.01 represents that there was an extremely significant difference.

A further experiment concerns alpha-glucosidase. As to conditions: in vitro; multiple of the activity of acarbose; cited from earlier work.
Where [2] appears, read: 0.5 h after intragastric sucrose.

Take `Oc1ccc([C@H]2Oc3ccc(/C=C/c4cc(O)cc(O)c4)cc3[C@@H]2c2cc(O)cc(O)c2)cc1` [(S,S)-TVN, (7S,8S)-trans-δ-viniferin]: the “area under the sucrose tolerance test curve” value (“area” below) in experiment [1] is 20.9 mmol·h/L. For the same compound, the figures for the blood glucose-lowering rate in experiment [1] (at 0.5 h) and in experiment [1] (at 1 h) were 0.08% and 3.01%, respectively. The “lowering of sucrose-induced high blood sugar level of a mouse (in words)” value (from here on “lowering … (in words)”) in experiment [1] was “cannot significantly lower a sucrose-induced high blood sugar level of a mouse”.
For `C[C@H]1O[C@H](O[C@H]2[C@H](O)[C@@H](O)[C@@H](O[C@H]3[C@H](O)[C@@H](O)C(O)O[C@@H]3CO)O[C@@H]2CO)[C@H](O)[C@@H](O)[C@@H]1N[C@H]1C=C(CO)[C@@H](O)[C@H](O)[C@H]1O` (some centres unmarked) [Acarbose, acarbose], the Blood sugar concentration in experiment [1] (0 h after intragastric sucrose) stood at 7.94 ± 1.25 mmol/L; in experiment [1] (setting [2]) it was 9.74 ± 1.45 mmol/L; in experiment [1] (1 h after intragastric sucrose), 8.32 ± 1.50 mmol/L; in experiment [1] (2 h after intragastric sucrose), 8.54 ± 1.04 mmol/L. Moreover, the blood glucose-lowering rate was 18.97% in experiment [1] (at 0.5 h) and 21.66% in experiment [1] (at 1 h).
For the compound `Oc1ccc([C@@H]2Oc3ccc(/C=C/c4cc(O)cc(O)c4)cc3[C@H]2c2cc(O)cc(O)c2)cc1` [(R,R)-TVN, (7R,8R)-trans-δ-viniferin], the “area” value in experiment [1] came to 16.7 mmol·h/L. Moreover, the blood glucose-lowering rate in experiment [1] (at 0.5 h) is 30.20%; in experiment [1] (at 1 h), 22.79%. Also, the “lowering … (in words)” value in experiment [1] was “can significantly lower a sucrose-induced high blood sugar level of a mouse, and has a better effect than the TVN racemate”.
Turning to `Oc1ccc(C2Oc3ccc(/C=C/c4cc(O)cc(O)c4)cc3C2c2cc(O)cc(O)c2)cc1` (racemic) [TVN racemate, trans-δ-viniferin], the Blood sugar concentration is 7.75 ± 1.57 mmol/L in experiment [1] (0 h after intragastric sucrose), 10.34 ± 1.75 mmol/L in experiment [1] (setting [2]), 9.07 ± 1.55 mmol/L in experiment [1] (1 h after intragastric sucrose) and 8.83 ± 1.46 mmol/L in experiment [1] (2 h after intragastric sucrose). In addition, in experiment [1], the “area” value came to 18.3 mmol·h/L. Besides, the results for the blood glucose-lowering rate in experiment [1] (at 0.5 h) and in experiment [1] (at 1 h) were 13.98% and 14.60%, respectively. The “lowering … (in words)” value in experiment [1] was “has a hypoglycemic activity between hypoglycemic activities of the both”. Moreover, in the experiment with alpha-glucosidase, the “alpha-glucosidase inhibitory activity relative to acarbose” value was 254 times.
